In PubChem BioAssay AID1963981 (Molecular Pharmacology Branch, DTP, NCI, 2024):

Test system: 354836-022-R-J1-PDC multicell spheroid viability
Assay: Anticancer human tumor 354836-022-R-J1-PDC patient-derived head and neck squamous cell carcinoma cell line growth inhibition [PI3K]
Conditions: for viability, T/C: stronger effect = lower value
Procedure, shortened: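 Viability of mixed-cell spheroids was determined after exposure to pairwise combinations, one partner being inavolisib, alpelisib, duvelisib or copanlisib. Highest tested concentration matched clinical Cmax where known and 10 microM where not, descending in half-log steps.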

[1] = curve of first compound, second compound 0.0316 µM
[2] = curve of first compound, second compound 0.1 µM
[3] = curve of first compound, second compound 0.316 µM
[4] = curve of first compound, second compound 1 µM
[5] = second compound 0.0316 µM, first compound 0.0316 µM
[6] = second compound 0.0316 µM, first compound 0.1 µM
[7] = second compound 0.1 µM, first compound 0.0316 µM
[8] = second compound 0.1 µM, first compound 0.1 µM
[9] = second compound 0.316 µM, first compound 0.0316 µM
[10] = second compound 0.316 µM, first compound 0.1 µM
[11] = second compound 1 µM, first compound 0.0316 µM
[12] = second compound 1 µM, first compound 0.1 µM
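Further: spheroids exposed to agents for seven days before the viability read.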

`Cn1ncc(Cl)c1-c1cc(C(=O)NC(CN)Cc2cccc(F)c2)sc1Cl` (stereo unspecified) + CC(Nc1ccc2c(c1)OCCn1cc(N3C(=O)OCC3C(F)F)nc1-2)C(N)=O was tested, and the IC50 (curve of first compound, second compound 0.00316 µM) was 85.2 nM, the IC50 (curve of first compound, second compound 0.01 µM) was 92.4 nM and the IC50 [1] was 105 nM. The IC50 [2] was 129 nM, the IC50 [3] was 92.9 nM and the IC50 [4] was 37.2 nM. For the same compound, the viability, T/C (second compound 0.00316 µM, first compound 0.0316 µM) was 64.3%, the viability, T/C (second compound 0.00316 µM, first compound 0.1 µM) was 48.1% and the viability, T/C (second compound 0.00316 µM, first compound 0.316 µM) was 33.3%. It also gave a viability, T/C (second compound 0.00316 µM, first compound 1 µM) of 20.1%, a viability, T/C (second compound 0.00316 µM, first compound 3.16 µM) of 19.9% and a viability, T/C (second compound 0.00316 µM, first compound 10 µM) of 5.31%. The viability, T/C (second compound 0.01 µM, first compound 0.0316 µM) was 75.2%, the viability, T/C (second compound 0.01 µM, first compound 0.1 µM) was 47.5% and the viability, T/C (second compound 0.01 µM, first compound 0.316 µM) was 30.2%. For the same compound, the viability, T/C (second compound 0.01 µM, first compound 1 µM) was 18.9%, the viability, T/C (second compound 0.01 µM, first compound 3.16 µM) was 18.3% and the viability, T/C (second compound 0.01 µM, first compound 10 µM) was 5.41%. It also gave a viability, T/C [5] of 66.6%, a viability, T/C [6] of 56.4% and a viability, T/C (second compound 0.0316 µM, first compound 0.316 µM) of 27.3%. It also gave a viability, T/C (second compound 0.0316 µM, first compound 1 µM) of 23.9%, a viability, T/C (second compound 0.0316 µM, first compound 3.16 µM) of 16.9% and a viability, T/C (second compound 0.0316 µM, first compound 10 µM) of 3.21%. For the same compound, the viability, T/C [7] was 83.1%, the viability, T/C [8] was 56% and the viability, T/C (second compound 0.1 µM, first compound 0.316 µM) was 29.9%. For the same compound, the viability, T/C (second compound 0.1 µM, first compound 1 µM) was 24.2%, the viability, T/C (second compound 0.1 µM, first compound 3.16 µM) was 15.9% and the viability, T/C (second compound 0.1 µM, first compound 10 µM) was 4.25%. It also gave a viability, T/C [9] of 71%, a viability, T/C [10] of 48.8% and a viability, T/C (second compound 0.316 µM, first compound 0.316 µM) of 30.7%. It also gave a viability, T/C (second compound 0.316 µM, first compound 1 µM) of 20.5%, a viability, T/C (second compound 0.316 µM, first compound 3.16 µM) of 12.9% and a viability, T/C (second compound 0.316 µM, first compound 10 µM) of 5.46%. It also gave a viability, T/C [11] of 50.6%, a viability, T/C [12] of 45.2% and a viability, T/C (second compound 1 µM, first compound 0.316 µM) of 32.2%. It also gave a viability, T/C (second compound 1 µM, first compound 1 µM) of 25%, a viability, T/C (second compound 1 µM, first compound 3.16 µM) of 13% and a viability, T/C (second compound 1 µM, first compound 10 µM) of 4.09%.

For `Cn1ncnc1[C@H]1c2n[nH]c(=O)c3cc(F)cc(c23)N[C@@H]1c1ccc(F)cc1`, the viability, T/C (compound 0.000316 µM) was 101% [middle of 4 runs], the viability, T/C (compound 0.001 µM) was 100% [middle of 4 runs] and the viability, T/C (compound 0.00316 µM) was 98.7% [middle of 4 runs]. The viability, T/C (compound 0.01 µM) was 92.5% [middle of 4 runs], the viability, T/C (compound 0.0316 µM) was 96.4% [middle of 4 runs] and the viability, T/C (compound 0.1 µM) was 92.1% [middle of 4 runs]. It also gave an IC50 (curve of compound) of over 100 nM.

`Cn1ncnc1[C@H]1c2n[nH]c(=O)c3cc(F)cc(c23)N[C@@H]1c1ccc(F)cc1` + Cc1nc(NC(=O)N2CCCC2C(N)=O)sc1-c1ccnc(C(C)(C)C(F)(F)F)c1 showed an IC50 [1] of over 100 nM, an IC50 [2] of over 100 nM and an IC50 [3] of over 100 nM. It also gave an IC50 [4] of over 100 nM, an IC50 (curve of first compound, second compound 3.16 µM) of over 100 nM and an IC50 (curve of first compound, second compound 10 µM) of under 0.316 nM. It also gave a viability, T/C (second compound 0.0316 µM, first compound 0.000316 µM) of 115%, a viability, T/C (second compound 0.0316 µM, first compound 0.001 µM) of 90.7% and a viability, T/C (second compound 0.0316 µM, first compound 0.00316 µM) of 107%. It also gave a viability, T/C (second compound 0.0316 µM, first compound 0.01 µM) of 98.4%, a viability, T/C [5] of 105% and a viability, T/C [6] of 88.3%. It also gave a viability, T/C (second compound 0.1 µM, first compound 0.000316 µM) of 93.6%, a viability, T/C (second compound 0.1 µM, first compound 0.001 µM) of 88.7% and a viability, T/C (second compound 0.1 µM, first compound 0.00316 µM) of 98%. It also gave a viability, T/C (second compound 0.1 µM, first compound 0.01 µM) of 93%, a viability, T/C [7] of 98.5% and a viability, T/C [8] of 94%. The viability, T/C (second compound 0.316 µM, first compound 0.000316 µM) was 85%, the viability, T/C (second compound 0.316 µM, first compound 0.001 µM) was 103% and the viability, T/C (second compound 0.316 µM, first compound 0.00316 µM) was 99.5%. The viability, T/C (second compound 0.316 µM, first compound 0.01 µM) was 95.8%, the viability, T/C [9] was 81.4% and the viability, T/C [10] was 89.9%. For the same compound, the viability, T/C (second compound 1 µM, first compound 0.000316 µM) was 80.8%, the viability, T/C (second compound 1 µM, first compound 0.001 µM) was 85.3% and the viability, T/C (second compound 1 µM, first compound 0.00316 µM) was 83.3%. It also gave a viability, T/C (second compound 1 µM, first compound 0.01 µM) of 86.6%, a viability, T/C [11] of 85.3% and a viability, T/C [12] of 77.3%. The viability, T/C (second compound 3.16 µM, first compound 0.000316 µM) was 58.2%, the viability, T/C (second compound 3.16 µM, first compound 0.001 µM) was 70.1% and the viability, T/C (second compound 3.16 µM, first compound 0.00316 µM) was 62.8%. It also gave a viability, T/C (second compound 3.16 µM, first compound 0.01 µM) of 67.3%, a viability, T/C (second compound 3.16 µM, first compound 0.0316 µM) of 59.3% and a viability, T/C (second compound 3.16 µM, first compound 0.1 µM) of 62.2%. The viability, T/C (second compound 10 µM, first compound 0.000316 µM) was 39.7%, the viability, T/C (second compound 10 µM, first compound 0.001 µM) was 38.9% and the viability, T/C (second compound 10 µM, first compound 0.00316 µM) was 43.4%. For the same compound, the viability, T/C (second compound 10 µM, first compound 0.01 µM) was 45.5%, the viability, T/C (second compound 10 µM, first compound 0.0316 µM) was 31.1% and the viability, T/C (second compound 10 µM, first compound 0.1 µM) was 30.3%.
